These results are taken from patent US12643887B2, “Heterocyclic derivatives with cardiomyocyte proliferation activity for treatment of heart diseases” (Tongji University, priority 2019, dated 2026).

Some results are limits rather than exact numbers.

One assay concerns the target T1, human CK2a2 (CSNK2a2) (Homo sapiens, UniProt P19784).
T1 construct: Recombinant human CK2a2 (CSNK2a2) (full length); GST (N); purchased SignalChem C71-10G; host or cells: Sf9 insect cells
The experiment in a line: CK2a2 (CSNK2a2) enzyme assay (ADP-Glo). The format is biochemical. The note with it: ADP-Glo, ATP 15 μM; read-out: CK2 alpha 2 IC50. As to the method:
8. CK2a2 (CSNK2a2) Enzyme Assay
The ability of compounds to inhibit human CK2a2 (CSNK2a2) kinase activities was determined using a commercially available ADP-Glo™ Kinase Assay kit (Promega, Cat #V9102) according to the manufacturer's protocol.
Recombinant human CK2a2 (CSNK2a2) (full length) (expressed in Sf9 insect cells with an N-terminal GST tag) was purchased from SignalChem (Cat #C71-10G). CK2 substrate (sequence: […]) was purchased from SignalChem (Cat #C08-58). This assay, run in a 384-well plate format, is a generic method for measuring kinase activities using an ADP-Glo Kinase Assay Kit. The basic assay procedure involves two steps: (1) Enzymatic step: inhibitors are incubated with the kinase and then ATP (included in the ADP-Glo Kinase Assay Kit) and the MBP protein are added to start the enzymatic reaction; (2) Detection step: after the kinase reaction, first ADP-Glo™ Reagent is added to terminate the kinase reaction and deplete the remaining ATP. Second, the Kinase Detection Reagent is added to simultaneously convert ADP to ATP and allow the newly synthesized ATP to be measured using a luciferase/luciferin reaction. The light generated is measured using a luminometer.
Briefly, CK2a2 (CSNK2a2) (7 nM) in the enzymatic buffer solutions (40 mM Tris, pH 7.5, 20 mM MgCl2, 0.1 mg/ml BSA, 50 μM DTT) were mixed with various concentrations of inhibitors (dissolved in 100% DMSO). These solutions were incubated for 30 minutes at 25° C., and subsequently a mixture of substrate peptide and ATP was added with the final peptide and ATP concentrations at 0.04 mg/ml and 15 μM, respectively. The final reaction mixture of enzyme-substrate-ATP-compound was incubated for 90 minutes at 25° C.
(§1) Afterwards ADP-Glo™ Reagent was added and the mixture was incubated at 25° C. for 60 minutes. Then Kinase Detection Reagent was added, and the final mixture was incubated at 25° C. for 60 minutes. The luminescence signal of the final solution was measured on an Envision instrument (PerkinElmer). The percent (%) inhibition at each concentration of a compound is calculated relative to the luminescence signal in the Max and Min control wells contained within each assay plate. […] The concentrations and percent inhibition values for a test compound are plotted and the concentration of the compound required to achieve 50% inhibition (IC50) is determined with a four-parameter logistic dose response equation.

The next assay concerns the target T2, human CIT (Homo sapiens, UniProt O14578).
T2 construct: Recombinant human CIT (1-499); GST (N); purchased SignalChem C52-11G; host or cells: Sf9 insect cells
The experiment in a line: CIT enzyme assay (ADP-Glo). The class given is biochemical. The note with it: ADP-Glo, ATP 5 μM; read-out: CIT IC50. As for the experimental part: The ability of compounds to inhibit human CIT kinase activities was determined using a commercially available ADP-Glo™ Kinase Assay kit (Promega, Cat #V9102) according to the manufacturer's protocol.
Recombinant human CIT (1-499) (expressed in Sf9 insect cells with an N-terminal GST tag) was purchased from SignalChem (Cat #C52-11G). Recombinant full length human MBP (expressed in E. Coli cells with an N-terminal GST tag) was purchased from SignalChem (Cat #M42-54G). This assay, run in a 384-well plate format, is a generic method for measuring kinase activities using an ADP-Glo Kinase Assay Kit. The basic assay procedure involves two steps: (1) Enzymatic step: inhibitors are incubated with the kinase and then ATP (included in the ADP-Glo Kinase Assay Kit) and the MBP protein are added to start the enzymatic reaction; (2) Detection step: after the kinase reaction, first ADP-Glo™ Reagent is added to terminate the kinase reaction and deplete the remaining ATP. Second, the Kinase Detection Reagent is added to simultaneously convert ADP to ATP and allow the newly synthesized ATP to be measured using a luciferase/luciferin reaction. The light generated is measured using a luminometer.
Briefly, CIT (20 nM) in the enzymatic buffer solutions (40 mM Tris, pH 7.5, 20 mM MgCl2, 0.1 mg/ml BSA, 50 μM DTT) were mixed with various concentrations of inhibitors (dissolved in 100% DMSO). These solutions were incubated for 30 minutes at 25° C., and subsequently a mixture of substrate peptide and ATP was added with the final peptide and ATP concentrations at 0.05 mg/ml and 5 μM, respectively. The final reaction mixture of enzyme-substrate-ATP-compound was incubated for 90 minutes at 25° C.
as §1
A general note: ADP-Glo first removes unused ATP, then detects ADP through luciferase.

T2 sequence (O14578 1-499): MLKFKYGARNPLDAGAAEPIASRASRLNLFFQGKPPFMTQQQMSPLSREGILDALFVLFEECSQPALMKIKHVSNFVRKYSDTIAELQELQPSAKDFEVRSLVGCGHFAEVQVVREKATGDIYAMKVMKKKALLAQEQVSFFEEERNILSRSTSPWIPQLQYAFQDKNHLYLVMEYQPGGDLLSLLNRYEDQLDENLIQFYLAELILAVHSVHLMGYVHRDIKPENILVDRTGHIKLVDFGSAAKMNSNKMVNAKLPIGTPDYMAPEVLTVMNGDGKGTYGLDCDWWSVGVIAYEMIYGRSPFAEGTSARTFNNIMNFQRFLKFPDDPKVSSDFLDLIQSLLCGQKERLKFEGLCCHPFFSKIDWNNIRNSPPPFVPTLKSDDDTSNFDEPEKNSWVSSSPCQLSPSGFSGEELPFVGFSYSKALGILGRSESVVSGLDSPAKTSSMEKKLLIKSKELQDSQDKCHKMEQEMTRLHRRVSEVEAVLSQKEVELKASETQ
T1 sequence (P19784 whole entry): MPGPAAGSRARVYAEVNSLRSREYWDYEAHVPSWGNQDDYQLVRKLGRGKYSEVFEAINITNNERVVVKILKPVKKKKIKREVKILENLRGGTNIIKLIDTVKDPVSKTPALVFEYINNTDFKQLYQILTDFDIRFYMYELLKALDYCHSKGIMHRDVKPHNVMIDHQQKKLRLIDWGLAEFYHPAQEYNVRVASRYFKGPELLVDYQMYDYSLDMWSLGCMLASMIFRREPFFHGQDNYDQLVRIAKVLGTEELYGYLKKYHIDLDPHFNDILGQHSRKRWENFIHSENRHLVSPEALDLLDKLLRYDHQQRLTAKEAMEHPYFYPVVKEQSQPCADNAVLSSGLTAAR

What is called IC50 is the point on the concentration scale where inhibition reaches its midpoint. `CN(C1=N/C(=C\c2ccc3c(c2)OCCO3)C(=O)N1)c1ccc2ncsc2c1` [Example 84, (Z)-2-(benzo[d]thiazol-6-yl(methyl)amino)-5-((2,3-dihydrobenzo[b][1,4]dioxin-6-yl)methylene)-3,5-dihydro-4H-imidazol-4-one]: the half-maximal inhibitory concentration (IC50) on human CK2a2 (CSNK2a2) is 100 to 1000 nM; at human CIT it was over 10000 nM.

Turning to `NC1=N/C(=C\c2ccc3ncsc3c2)C(=O)N1` [Example 103, (Z)-2-amino-5-(benzo[d]thiazol-6-ylmethylene)-3,5-dihydro-4H-imidazol-4-one], the IC50 on human CK2a2 (CSNK2a2) and at human CIT was 100 to 1000 nM in each case.
